Laboratory results as given in a melting point compilation (Tetko et al.; mined from patent text by program, amines drawn as free bases though some values may be those of a salt).

Row | melting point [°C] | SMILES
1 | 93 to 95 | COc1ccccc1N1CCN(C(=O)CCCN2CC=C(c3c[nH]c4cc(Cl)ccc34)CC2)CC1
2 | 136 to 139 | Cc1cc(C)c(N2C(=O)C(C)Cc3c(Cl)nc(C)nc32)c(C)c1 (stereo not given)
3 | 238 to 239 | Cc1cccc(C(=O)NC(Nc2c(Nc3cccnc3Cl)c(=O)c2=O)C(C)(C)C)c1 (stereo not given)
4 | 170 to 172 | COc1cc(/C=C/C(=O)CC(=O)c2ccc(O)c(OC)c2)ccc1O
5 | 232 to 233 | CC(=O)NC[C@H]1CN(c2ccc3c(c2)CCSCC3=O)C(=O)O1
6 | 171 to 173 | CN(C)S(=O)(=O)n1cnc(S(=O)(=O)NCc2ccc(Cl)cc2)c1
7 | 134 to 135 | CCNC(=O)c1c([Si](C)(C)C)ccc(-c2ccccc2)c1Cl
8 | 130 to 131 | CCCCc1cc2c(C)n(C)nc2c(N)n1
9 | 85 to 86 | CN(C)C(=O)c1c(Cl)csc1-c1ncc(C(F)(F)F)cc1Cl
10 | 229 to 231 | O=C(C(=O)N1CCN(c2cccc3[nH]ccc23)CC1)c1c[nH]c2cc(Cl)ccc12
11 | 162 | CN(Cc1ccccc1)C(=O)CCC(=O)c1ccc(Cl)c(S(N)(=O)=O)c1
12 | 134 to 137 | Nc1cc(S(=O)c2ccc(-c3ccccc3)cc2)ccc1Cl (stereo not given)
13 | 87 to 88 | CCOC(=O)C1=C(C)NC(C=O)=C(C(=O)OCC)C1c1ccccc1Cl (stereo not given)
14 | 122 to 123 | CC(C)n1c(=O)oc2cc([N+](=O)[O-])cc(F)c21
15 | 247 to 248 | NC(=O)C1CCc2[nH]c3ccc(Cl)cc3c2C1 (stereo not given)
16 | 320 | O=C(O)c1ccc(-n2cc(C3c4ccccc4C=Cc4ccccc43)c(=S)[nH]c2=O)cc1
17 | 110 | OC[C@@H]1CCCN1c1nc2ccccc2s1
18 | 195 to 196 | CCc1[nH]n(C2CCCC2)c2nc(-c3cccc(OC4CCCCN(C)C4)c3)nc(=O)c1-2 (stereo not given)
19 | 91 to 92 | Cc1c(C)c2c(c(C)c1N)CC(C)(CN1CCC(CCc3ccccc3)CC1)O2 (stereo not given)
20 | > 300 | O=c1[nH]c2cc3nc(-c4ccncc4)[nH]c3cc2[nH]c1=O
21 | > 200 | O=c1[nH]c2c(n(O)c1=O)C1=C(CCC(n3ccc(CN4CCN(C(c5ccccc5)c5ccccc5)CC4)c3)=C1)CC2
22 | 70 to 77 | CCOC(=O)c1c(O)cc(C(F)(F)F)nc1C(F)(F)F
23 | 347 to 349 | N#Cc1ccc(-c2ccc(C#N)cc2-c2nc3ccccc3[nH]2)c(-c2nc3ccccc3[nH]2)c1
24 | 189 to 191 | CC1(C)C(=O)C(C)(C)c2cc(C(O)CN3CCN(c4nsc5ccccc45)CC3)ccc21 (stereo not given)
25 | 109 to 111 | CCOC(=O)C(=CNc1cccc(C#N)c1)C(=O)OCC

Row | melting point [°C] | SMILES
26 | 55 to 59 | O=[N+]([O-])c1cccc2c1OCCO2
27 | 73 to 74 | COC(=O)C[C@H]1[C@H](NC(=O)OC(C)(C)C)CCN1C(=O)OCc1ccccc1 (relative stereo)
28 | 162 to 163 | CCOC(=O)c1cc2cc(OCCOC)cc(N)c2[nH]1
29 | 79 | COCc1cc(Cl)n2nc(SCc3ccccc3)nc2n1
30 | 56 to 59 | CC(C)(C)C1OC1C(O)c1ccc(F)cc1 (stereo not given)
31 | 90 to 93 | COc1ccc(N2C(=O)C(=C3CCCN3C)c3ccccc32)cc1
32 | 114 to 117 | COC(=O)c1cc(-c2ccc(OC)c(F)c2)nn(CC2CC2)c1=O
33 | 140 to 142 | Cc1csc(C(O)(c2nc(C)cs2)C(F)(F)F)n1
34 | 126 to 129 | COc1cc([N+](=O)[O-])ccc1S(=O)(=O)Nc1ccc(C)cc1
35 | 226 to 228 | NC(=O)c1ccc(-c2ccccc2C(=O)N2Cc3cccn3Cc3ccccc32)cc1C(F)(F)F
36 | 205 to 206 | CC(C)(C)NC(=O)NC(Cc1ccccc1)C(=O)Nc1c(F)cc(F)cc1F (stereo not given)
37 | 116 to 118 | CS(=O)Cc1ccc(C(=O)c2ccc(Cl)cc2)cc1 (stereo not given)
38 | 102 to 104 | CCCCc1nc(O)cc(CCl)n1
39 | 153 to 154 | COC(=O)c1ccc(NC(=O)c2cc(C(C)C)c(C(C)C)s2)cc1Cl
40 | 146 to 147 | Cc1c(C)c2c(c(C)c1NC(=O)CC(C)(C)C)C(c1ccccc1)CO2 (stereo not given)
41 | 73 to 75 | CCOC(=O)COc1cc2cc(C3CCCCC3)sc2c(Cl)c1Cl
42 | 124 to 125 | CC(C)(C)OC(=O)N1CCCC[C@@H]1C(=O)c1ccc(Br)cc1
43 | 253 to 257 | N=C(N)Nc1cc(C(=O)O)ccc1N1C(=O)CCC1CO (stereo not given)
44 | 84 to 86 | CCOc1nc(OCC)c2cscc2n1
45 | 87 | Cc1ccc(Cc2ccc(-c3ccccc3)cc2)cc1
46 | 152 to 153 | CC1(C)Oc2ccc(C#N)cc2[C@@H](N2CCCNC2=NC#N)[C@@H]1O (relative stereo)
47 | 191 to 193 | CCOC(=O)c1cnc2c(SSc3ccccc3[N+](=O)[O-])cccn2c1=O
48 | 164 to 165 | CCn1c(=O)cc(C)c2ccc(OCCCN3CCC(NC(=O)c4ccccc4)CC3)cc21
49 | 55 to 56 | COc1cc2c(cc1OC)-c1cc3ccccc3nc1CC2
50 | 243 to 244 | CC(=O)Nc1nc2c(nc(NC(C)=O)n2Cc2cccs2)c(=O)[nH]1

Row | melting point [°C] | SMILES
51 | 14 | CCCCCCC(=O)CC(=O)c1ccccc1
52 | 80 to 81 | CCC1(CC)C(=O)c2cc(OC)c(C)c(C)c2C1=O
53 | 173 to 174 | CCCc1cc(O)nc(-c2ccncc2)n1
54 | 250 to 251 | Cc1cc(-c2ccc(Cl)cc2)nc2c(C(=O)Nc3cccc(S(C)(=O)=O)c3)cnn12
55 | 147 to 150 | Nc1ccc(-n2ncnc2-c2ccc(F)cc2)cc1
56 | 119 to 120 | O=C(NCc1ccncc1)c1cc2ccnc(N(Cc3ccccc3)Cc3ccccc3)c2[nH]1
57 | 136 to 139 | COc1ccc(N2CCN(c3c(C)c(C)c4c(c3C)C(c3ccc(C)cc3)C(C)(C)O4)CC2)cc1OC (stereo not given)
58 | 122 to 124 | O=C(c1ccc(F)c(F)c1Nc1ccc(I)cc1F)N1CC(O)CO1 (stereo not given)
59 | 150 to 151 | O=C1OC(CCI)C(O)=C1O (stereo not given)
60 | 159 to 160 | COC(=O)c1c(CSc2nccn2C)nc2cc(OC)c(OC)cc2c1-c1ccc(OC)c(OC)c1
61 | 65 to 70 | Oc1cc2c(cc1CCCOc1ccccc1)OC(CCc1ccccc1)C2 (stereo not given)
62 | 194 to 196 | COc1cc2c(Nc3ccc(Oc4cccnc4)cc3)c(C#N)cnc2cc1N1CCC(N2CCCC2)CC1
63 | 157 | Cc1nc(Cc2ccccc2)cc(C(=O)O)c1OCCCN(C)C
64 | > 193 | Nc1nc(S(N)(=O)=O)c2ncn(C3OC(CO)C(O)C3O)c2n1 (stereo not given)
65 | 102 to 103 | CCC(O)(c1ccc(O)cc1)c1cccc(C(F)(F)F)c1 (stereo not given)
66 | 221 to 223 | COc1ccc(S(=O)(=O)NC(=O)c2ccc(C(=O)NCCO)nc2)cc1
67 | 150 to 151 | O=C(O)C1C=CCn2c(=O)n(CCCl)c(=O)n21 (stereo not given)
68 | 170 to 174 | CCCc1c(N)c(C(N)=O)nn1C
69 | 122 | Cc1nn(C)cc1C(=O)NC(C#N)c1ccco1 (stereo not given)
70 | 29 to 31 | COC(=O)Cc1ccsc1-c1ccccc1
71 | 137 to 140 | COc1nc(OC)nc(-n2c(C(F)(F)F)nc3cc(C)ccc32)n1
72 | 98 to 100 | COCCCNS(=O)(=O)NC(=O)OC/C=C/c1ccc(OCCOC)cc1Oc1ncc(C(F)(F)F)cc1Cl
73 | 69 to 70 | CCOC(=O)/C=C/c1ccc(OCOC)cc1Oc1ccc(C(F)(F)F)cn1
74 | 74 to 75 | COC(=O)CSc1cc(C)ccc1[N+](=O)[O-]
75 | 238 | COc1ccc(-c2nc(-c3ccn4c3CCC4)[nH]c2-c2ccc(OC)cc2)cc1

Row | melting point [°C] | SMILES
76 | 91 to 92 | c1cc(CN2CCCC2)cc(OCCCNc2nc3ccccc3s2)c1
77 | 199 to 201 | CCCNC(=O)Nc1ccc2oc([N+](=O)[O-])c(-c3ccccc3)c2c1
78 | 161 to 162 | CCOCc1nc2c(N)nc3cc(N4CCOCC4)ccc3c2n1CCCOC(C)C
79 | 160 to 161 | COCCOc1cc(NS(=O)(=O)c2ccccn2)c2[nH]c(C(=O)NCC(CN3CCSCC3)SCc3ccccc3)cc2c1 (stereo not given)
80 | 170 to 171 | COc1ccc(C2(C#Cc3cnc(NC(C)=O)nc3)CCC(=O)CC2)cc1OC1CCCC1
81 | 181 to 182 | C=CCn1c(N)nc(N2CCc3ccccc3CC2)c(C#N)c1=O
82 | 170 | CCc1cccc(CC)c1NC(=O)C1c2ccccc2COc2ccc(C(C)C)cc21 (stereo not given)
83 | 179 to 181 | CC(Cc1c[nH]c2ccccc12)(NC(=O)OCC1c2ccccc2-c2ccccc21)C(=O)NCCc1ccccc1 (stereo not given)
84 | 166 | O=C(NC1CCCCC1)N1CCC(c2cn(C(=O)NC3CCCCC3)cn2)CC1
85 | 188 to 190 | CC1N=C(NN2CCCCC2)NN=C1c1ccccc1 (stereo not given)
86 | 217 to 218 | CC(=O)NCc1cccc(Nc2nccc(-c3sc(-c4ncc(C(F)(F)F)cc4Cl)nc3C)n2)c1
87 | 155 | COC(=O)NNC(=O)c1ccc([N+](=O)[O-])o1
88 | 165 to 167 | CC(C)(C)OC(=O)n1c(C#N)ccc1-c1ccc2c(c1)C(C)(C)OC(=O)N2
89 | 189 to 192 | Cc1cc(NC(=O)C2=C(O)CN(C)S(=O)(=O)N2C)no1
90 | 180 to 182 | O=C1Nc2ccccc2C12COc1cc(OC(F)(F)F)ccc12 (stereo not given)
91 | > 280 | CCOC(=O)c1ccc(-c2[nH]nc3c2C(=O)c2c(NC(N)=O)cccc2-3)s1
92 | 120 to 123 | CN(C)NC(=O)N(C)C1c2ccccc2Oc2ccccc21
93 | 141 to 143 | Cc1cc(C(F)(F)F)cnc1O
94 | 239 to 241 | CSCc1c[nH]c(=O)[nH]c1=O
95 | 166 to 167 | Cc1cc(CSCCNc2nc(NC(=O)Nc3ccccc3)nn2C)oc1CN(C)C
96 | 225 | Cc1cc(-c2ccc(C(F)(F)F)cc2)nc(-c2cccc(-c3ccc(S(N)(=O)=O)s3)c2)n1
97 | 180 | CCN(CC)CCN1c2cc(Cl)ccc2S[C@H]2[C@@H](O)[C@H](O)[C@@H](COC(C)=O)O[C@H]21

Row | SMILES | melting point [°C]
98 | CN1CCC(N2C(=O)CN=C(c3ccccc3Cl)c3cc(Cl)ccc32)CC1 | 146 to 147
99 | Cc1ccc(S(=O)(=O)NC(=O)N2CC2C#N)cc1 (stereo not given) | 156 to 158
100 | O=C1CCC2C3Cc4ccc(O)cc4C2(CCN3CC2CC2)C1 (stereo not given) | 125 to 127
